Measurements as given in patent US11203583B2, “Prodrug and profluorescent compounds for selective mitochondrial imaging and therapeutic targeting” (ARIZONA BOARD OF REGENTS ON BEHALF OF ARIZONA STATE …, priority 2016, dated 2021).
“Also recorded” adds a separate entry of the source.

Experiments:
[1] = test system: A549 lung cancer cells; assay: MTT toxicity assay; type: cell-based, human; details: 24 h incubation at 1, 5 and 10 μM, FIG. 9b
Experimental: Exponentially growing A459 cells were harvested and plated in 96-well plates at a concentration of 2×10^4 cells/well. After incubation at 37° C. for 24 h, the cells were treated with compounds AMA, 4a and 4b at final concentrations of 1, 5 and 10 μM for an additional 24 hours. Then 20 μL of MTT (5 mg/mL) was added to each well and the plates were incubated at 37° C. for 4 h. The supernatants were discarded, and 100 μL of DMSO was added to each well. The absorbance was recorded at 490 nm after 15 min. Cell viability was determined by the following formula: cell viability (%)=100−(ODnegative control−ODtreatment)×100%/(ODnegative control−ODbackground). Data are reported as the mean of three independent experiments, each run was carried out quintuplicate.

[2] = test system: mitochondrial nitroreductase in live A549 cells; assay: Fluorescence microscopy: activation of prodrugs 4a and 4b (AMA release) in live A549 cells; type: cell-based, human; details: 25 μM; for release of AMA (appearance of AMA fluorescence, λem ~425 nm) in live A549 cells: 4 hours; for localization of AMA fluorescence relative to mitochondria in A549 cells: MitoTracker Green FM
Experimental: The finding of nitroreductase activity associated with the mitochondria of human cells encouraged us to design a new prodrug based on the mitochondrial poison antimycin A (AMA). It has recently been noted that AMA is toxic only at relatively high concentration,^19 plausibly due to a lack of facile access to the mitochondria. […] Accordingly, 0-p-nitrobenzyl-AMA (4a) was prepared in good yield by alkylation of AMA (FIG. 8a). Also prepared as a control was O-benzyl-AMA (4b). […] Accordingly, it is possible to monitor the release of AMA within the mitochondria after enzymatic reduction of the nitro moiety in 4a.
Fluorescence microscopy images were acquired using a Zeiss Axiovert 200M inverted microscope fitted with an AxioCam MRm camera equipped with a 300 W xenon lamp (Sutter, Novato, Calif., USA), and DAPI (blue channel) and Texas red (red channel) filters (Chroma, Bellows Falls, Vt., USA). A549 cells were grown on glass bottom microwell disks (MatTek Corporation, MA, USA) at a cell density of 10000 cells/well at 37° C. for 24 hours. When the cell confluence reached ˜60-70%, the cells were rinsed three times with phosphate buffered saline (PBS). The cells were then treated with AMA, 4a and 4b at 25 μM concentration for 4 hours. The cells were then stained using 100 nM MitoTracker Green FM (Cell Signaling Technology, Danvers, Mass., USA) for 40 minutes. Thereafter, all images were recorded and counted using a 40× oil objective. To ensure accurate intensity measurements, the exposure time and laser time were kept the same. Data are reported as the mean of three independent experiments.

[3] = test system: NADH oxidase (mitochondrial respiratory complexes I, III, and IV); assay: NADH oxidase activity assay in bovine heart submitochondrial particles; type: biochemical; details: for NADH oxidase inhibitory activity (qualitative comparison): 0.05, 0.1 and 0.5 μM concentrations, FIG. 9a
Experimental: The effect of compounds AMA, 4a and 4b on NADH oxidase activity were evaluated using bovine heart mitochondria. The bovine heart mitochondria and bovine heart submitochondrial particles (SMPs) were prepared as described.^2 The SMPs were diluted to 0.5 mg/mL, and the test compounds were assayed at 25° C. and monitored spectrophotometrically using a Beckman Coulter DU-530 spectrometer (340 nm, c 6.22 mM^−1 cm^−1). NADH oxidase activity was determined in 1 mL of 50 mM Hepes buffer containing 5 mM MgCl2, pH 7.5. The final mitochondrial protein concentration was 30 μg/mL. The initial rates of NADH oxidation were calculated from the linear portion of the traces. Data are reported as the mean of three independent experiments each run in triplicate.

[4] = Relative fluorescence quantum yield; type: physicochemical
Experimental: All experiments requiring anhydrous conditions were conducted in flame-dried glassware fitted with a rubber septum under a positive pressure of dry argon. Reactions were performed at room temperature unless otherwise indicated. Analytical thin layer chromatography was performed using glass plates pre-coated with silica gel (0.25 mm, 60 Å pore size, 230-400 mesh, Silicycle) impregnated with a fluorescent indicator (254 nm). TLC plates were visualized by exposure to ultraviolet light (UV) or by staining using […]. Flash column chromatography was performed employing silica gel (60 Å pore size, 40-63 μm, standard grade, Silicycle). Fluorescence quantum yields were measured at 25° C. by a relative method using cresyl violet (CV, ΦF=56% in EtOH) as a standard.^1 The following equation was used to determine the relative fluorescence quantum yield: ΦF(x)=(AS/AX)(FX/FS)(nX/nS)^2ΦF(s) where A is the absorbance (in the range of 0.01-0.1 A.U.), F is the area under the emission curve, n is the refractive index of the solvents (at 25° C.) used in measurements, and the subscripts s and x represent standard and unknown, respectively. The following refractive index values were used: 1.362 for EtOH and 1.337 for PBS.

[5] = molecular target: E. coli nitroreductase (Escherichia coli, UniProt P38489); assay: Cell-free activation of profluorescent probes by purified E. coli nitroreductase (fluorescence monitoring); type: biochemical
Chain of E. coli nitroreductase (P38489 whole entry): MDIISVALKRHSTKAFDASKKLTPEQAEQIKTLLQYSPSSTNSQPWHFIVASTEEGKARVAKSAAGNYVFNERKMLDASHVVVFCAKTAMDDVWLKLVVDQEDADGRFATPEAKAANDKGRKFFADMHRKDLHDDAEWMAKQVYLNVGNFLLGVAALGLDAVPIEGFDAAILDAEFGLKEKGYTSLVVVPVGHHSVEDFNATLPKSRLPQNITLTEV
Description: (§1) The strategy for the release of the fluorescent NIR dye from a non-fluorescent precursor via mitochondrial nitroreductase-mediated reduction involved successive reduction, then elimination (FIG. 5b). The use of ortho, meta and para substituted probes (2a-2c) was crucial because it enabled the investigation of the proposed transformation in greater detail. […] To assess the viability of these probes for the detection of nitroreductase activity, we first validated the probes in a cell free system using purified E. coli nitroreductase. Probes 2a-c (10 μM) were incubated in PBS buffer, pH 7.4, containing 0.5 mM NADH. After a short time, during which no fluorescence was observed, the nitroreductase was added (1 μg mL^−1) and the development of fluorescence was monitored as a function of time (FIGS. 6b, 6c). […] This confirms that the released fluorescent dye is effectively of the QCy7 type by comparison with an authentic standard prepared by chemical synthesis (FIG. 13). With the viability of this probe thus confirmed, we carried out microscopy experiments employing A549 cancer cells. The incubation of 10 μM 2c with the cells for 4 hours was followed by the addition of […] mitotracker green (40-minute incubation). […] The green channel (FIG. 7b) illustrates visualization of the mitochondria by mitotracker green. […] For 2b this is understandable as no elimination process is possible, as confirmed during the in vitro tests. In the case of 2a, we assume that the low kinetics of the reduction (c.f. FIG. 6b) is probably the cause of the absence of a strong signal. […]
A solution of fluorogenic probe was prepared in 1 mL of phosphate buffered saline (PBS) and 150 μL of the resulting solution was transferred into a quartz fluorescence cell. […] After excitation at 572 nm the emission of the released fluorophore was monitored at 703 nm over time with measurements recorded every 1 sec. After 100 sec of incubation, 1.51 μL of a 1 mg mL^−1 solution of E. coli nitroreductase in water was added in the quartz fluorescence cell and the solution was mixed as the monitoring proceeded.

[6] = molecular target: DT diaphorase (Homo sapiens, UniProt P15559); assay: Selectivity of probe activation: DT diaphorase versus nitroreductase; type: biochemical; details: 10 μM 2c, 1 μg mL^-1 DTD or NTR, 10 mM PBS pH 7.4, 20 min, 25° C.
Chain of DT diaphorase (P15559 whole entry, species assumed): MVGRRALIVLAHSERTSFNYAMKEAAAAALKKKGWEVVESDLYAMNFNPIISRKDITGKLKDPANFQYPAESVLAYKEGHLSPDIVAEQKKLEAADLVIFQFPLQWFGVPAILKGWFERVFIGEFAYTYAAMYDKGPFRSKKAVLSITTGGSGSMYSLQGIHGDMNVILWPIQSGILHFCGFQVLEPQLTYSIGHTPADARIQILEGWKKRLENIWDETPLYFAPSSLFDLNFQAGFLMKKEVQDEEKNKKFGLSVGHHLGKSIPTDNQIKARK
Experimental: FIGS. 6A-6D. (a) Selective activation of 2c in vitro by E. coli nitroreductase. (b) Time dependent fluorescence emission by 2a, 2b and 2c (excitation at 572 nm; emission at 703 nm) in PBS at 25° C. following treatment with E. coli NTR (1 μg mL^−1) and 0.5 mM NADH. (c) Absorbance spectrum evolution with time during incubation of probe 2c in […] PBS buffer, pH 7.4, with E. coli NTR (1 μg mL^−1) and 0.5 mM NADH. (d) Development of fluorescence from 10 μM 2c following treatment with 1 μg mL^−1 DT diaphorase (DTD) or nitroreductase (NTR) in 10 mM PBS buffer, pH 7.4, for 20 min at 25° C. with or without […] NADH.
The strategy for the release of the fluorescent NIR dye from a non-fluorescent precursor via mitochondrial nitroreductase-mediated reduction involved successive reduction, then elimination (FIG. 5b). The use of ortho, meta and para substituted probes (2a-2c) was crucial because it enabled the investigation of the proposed transformation in greater detail. […] To assess the viability of these probes for the detection of nitroreductase activity, we first validated the probes in a cell free system using purified E. coli nitroreductase. […] After a short time, during which no fluorescence was observed, the nitroreductase was added (1 μg mL^−1) and the development of fluorescence was monitored as a function of time (FIGS. 6b, 6c). […]

[7] = test system: mitochondrial nitroreductase in live A549 cells; assay: Fluorescence microscopy: activation of probes 2a, 2b and 2c in live A549 cells; type: cell-based, human
Description: as §1
Fluorescence images were acquired using a Zeiss Axiovert 200M inverted microscope fitted with an AxioCam MRm camera equipped with a 300 W xenon lamp (Sutter, Novato, Calif.), and Texas red and FITC filters (Chroma, Bellows Falls, Vt.). […] Thereafter, all images were recorded and the target cells counted using a 40× oil objective. […] Pixel intensity was quantified using AxioVision release 4.7 version software, and the mean pixel intensity was generated as gray level. […]

## CCCCCC[C@H]1C(=O)O[C@H](C)[C@H](NC(=O)c2cccc(NC=O)c2OCc2ccc([N+](=O)[O-])cc2)C(=O)O[C@@H](C)[C@@H]1OC(=O)CC(C)C [Compound 4a, 2-O-(p-Nitrobenzyl)AMA]
[1]
  cytotoxicity toward A549 cancer cells (qualitative comparison): much more cytoxic toward A549 cancer cells than 4b; also recorded: considerably more cytotoxic than exogenously added AMA
[2]
  release of AMA (appearance of AMA fluorescence, λem ~425 nm) in live A549 cells: AMA was released from 4a
  localization of AMA fluorescence relative to mitochondria in A549 cells: Free AMA appeared exclusively in the mitochondria; also recorded: localized to the mitochondria
[3]
  NADH oxidase inhibitory activity (qualitative comparison): much weaker activity

## CCCCCC[C@H]1C(=O)O[C@H](C)[C@H](NC(=O)c2cccc(NC=O)c2OCc2ccccc2)C(=O)O[C@@H](C)[C@@H]1OC(=O)CC(C)C [Compound 4b, 2-O-Benzyl-AMA]
[2]
  release of AMA (appearance of AMA fluorescence, λem ~425 nm) in live A549 cells: no significant release of AMA; also recorded: not to a significant extent
[3]
  NADH oxidase inhibitory activity (qualitative comparison): much weaker activity

## CCCCCC[C@H]1C(=O)O[C@H](C)[C@H](NC(=O)c2cccc(NC=O)c2O)C(=O)O[C@@H](C)[C@@H]1OC(=O)CC(C)C [AMA, antimycin A, reference compound]
[2]
  localization of AMA fluorescence relative to mitochondria in A549 cells: did not fully colocalize with mitochondria
[4]
  quantum yield of the released AMA: ~0.06
[3]; 50 nM concentration
  inhibition of NADH oxidase: essentially completely
[3]
  NADH oxidase inhibitory activity (qualitative comparison): potent inhibitor

## CC[N+]1=C(/C=C/c2ccc(OCc3ccc([N+](=O)[O-])cc3)c(/C=C/C3=[N+](CC)c4ccccc4C3(C)C)c2)C(C)(C)c2ccccc21 [probe 2c]
[5]; 10 μM probe, PBS pH 7.4, 0.5 mM NADH, NTR 1 μg mL^-1
  rate of activation by E. coli nitroreductase, compared between probes: much faster than the activation of 2a
[5]; 10 μM probe, PBS pH 7.4, 0.5 mM NADH, NTR 1 μg mL^-1, excitation 572 nm, emission 703 nm, 25° C.
  development of fluorescence (activation) after addition of E. coli nitroreductase: good activation
[5]; PBS 25° C., 0.5 mM NADH, E. coli NTR 1 μg mL^-1
  dependence of fluorescence / activation on probe concentration: linear correlation between fluorescence intensity and probe concentration; also recorded: increased with increasing substrate concentration
[6]
  activation by DT diaphorase versus nitroreductase, with or without NADH: significant activation occurred only in the presence of the nitroreductase+NADH
[7]; 10 μM 2c, 100 nM MitoTracker Green FM, DAPI
  colocalization of probe fluorescence with MitoTracker Green (mitochondria): colocalized to mitochondria; also recorded: complete overlap of the red and green signals
[7]; 10 μM probe, 4 hours incubation, no hypoxic condition
  red fluorescence signal (release of QCy7 dye 3) in live A549 cells: activation of 2c by mitochondrial nitroreductase; also recorded: appearance of a red signal
[7]; different times and concentrations, FIG. 16
  concentration dependence of the signal in A549 cells: concentration dependent
